Assay results published in patent publication US6884577B2, “Methods for screening compounds for estrogenic activity” (The Regents of the University of California, priority 1993, dated 2005).

How the values were obtained:
[1] = test system: human ER at the AP-1 site of the collagenase promoter (coll73); test: Coll73-LUC luciferase reporter (collagenase promoter with AP-1 site) in cells transfected with human ER expression vector HEO; type: cell-based; details: relative to no ER
Description: All reporter genes described below have been modified by digestion with EcoR I and Ndel to remove a AP-I site in the backbone of pUG. […] Coll73-LUC was constructed by cloning a BamHI/Pvull fragment, that spanned the luciferase transcription unit, from pMG3 into coll73, which had been digested with BamHI and SmaI to remove the CAT transcription unit.
Cells were maintained and transfected as previously described in Webb et al., supra. […] F9 cells were seeded at 30% confluence upon 1.5 cm dishes and transfected overnight by calcium phosphate coprecipitation with 5 μg reporter gene, 1 μg actin β-HCG, and 1 μg of HEO, 300 ng each of c-jun and c-fos expression vectors. The cells were glycerol shocked and refed in growth medium containing hormone or ethanolic vehicle.
CAT assays were carried out as described in Webb et al., except that the cells were harvested one to two days after transfection instead of three. CAT activities were defined as the increase in cpm per hour at room temperature (corrected for background) per 100 μl of cell extract, normalized to production of 100 standard units of βHCG, from a co-transfected reporter gene, actin-HCG. […] Light units were defined as the luciferase activity per 100 μl of cell extract per 100 standard units of βHCG. Relative luciferase activities were calculated with respect to the results that were obtained in the absence of ER and hormone, which was set at 1 unit. For the data presented in Table I triplicate points were determined.
In each case, the cells were transfected with different amounts of the human ER expression vector HEO to determine the optimal response.

[2] = test system: ER at the AP1 site of the collagenase promoter, F9 cells; test: Δcoll73 CAT reporter in F9 cells with transiently transfected ER; type: cell-based, human; details: no c-Jun/c-fos, FIG. 1B
From the text: Cells were maintained and transfected as previously described in Webb et al., supra. […] […] The cells were glycerol shocked and refed in growth medium containing hormone or ethanolic vehicle.

[3] = test system: ER at classical ERE; test: Reporter genes containing classical EREs (ERE-coll60, ERE-tk) in cells with ER; type: cell-based, human
Description: FIGS. 2A-2C show antiestrogen stimulation of expression in an intact AP-1 Site, but not at classical EREs. […] Representations, at left, show the human collagenase promoter (shaded) and the consensus AP-1 site. CAT activities were from cells maintained in the absence of hormone or saturating concentrations of ICI 164,384 (ICI, 1 μM), tamoxifen (5 μM) or estradiol ([…]). CAT activity is normalized to a transfection control with the actin promoter driving expression of βHCG. Single representative experiments are shown, error bars represent standard deviation of triplicate hormone treatments.
All reporter genes described below have been modified by digestion with EcoR I and Ndel to remove a AP-I site in the backbone of pUG. Thus, Coll73 and Coll60 are formerly_Coll73 and_Coll60 (Lopez et al. Mol. Cell. Biol. 13:3042-930 (1993)). Coll73-LUC was constructed by cloning a BamHI/Pvull fragment, that spanned the luciferase transcription unit, from pMG3 into coll73, which had been digested with BamHI and SmaI to remove the CAT transcription unit. EREcoll60 and EREcoll73 was prepared by ligation of a consensus ERE ([…], SEQ ID NO:3), into the HindIII site upstream of coll60 and coll73, respectively. All other reporter genes have been previously described (Webb et al. Mol. Endocrinol. 6:157-16725 (1992): and Lopez et al., supra).
Cells were maintained and transfected as previously described in Webb et al., supra. Hormones were added two hours after plating in the following concentrations, estradiol 100 nM, ICI 164,384 1 μM, tamoxifen 5 μM, to ensure saturation of the response. F9 cells were seeded at 30% confluence upon 1.5 cm dishes and transfected overnight by calcium phosphate coprecipitation with 5 μg reporter gene, 1 μg actin β-HCG, and 1 μg of HEO, 300 ng each of c-jun and c-fos expression vectors. The cells were glycerol shocked and refed in growth medium containing hormone or ethanolic vehicle. In transient transfections, optimal amounts of HEO were employed and were as follows: HeLa (5 μg); NIH3T3 (1 μg); HepG2 (1 μg); SHM (300 ng); SY5Y (300 ng); CEF (100 ng); CV-1 (3 μg); MDA453 (3 μg); CHO (100 ng) and F9 (1 μg).
CAT assays were carried out as described in Webb et al., except that the cells were harvested one to two days after transfection instead of three. CAT activities were defined as the increase in cpm per hour at room temperature (corrected for background) per 100 μl of cell extract, normalized to production of 100 standard units of βHCG, from a co-transfected reporter gene, actin-HCG. Luciferase assays were performed as described by Brasier et al. Methods Enzymol 216:386-97 (1992)) on similar extracts that were used for CAT assays. Light units were defined as the luciferase activity per 100 μl of cell extract per 100 standard units of βHCG. Relative luciferase activities were calculated with respect to the results that were obtained in the absence of ER and hormone, which was set at 1 unit. For the data presented in Table I triplicate points were determined. Standard deviations were less than 20%.
The activity of antiestrogens in the AP-1 pathway was also compared with their activity in the classical pathway. […] A promoter with both an ERE and an AP-1 site (ERE-coll73 FIG. 2C) gave a large estrogen response, but retained some response to antiestrogens. Another control reporter, in which the tk promoter was regulated by a classical ERE (ERE-tk FIG. 2C) was also activated by estrogen, but not by antiestrogens.

[4] = test system: ER at the AP-1 site of the collagenase promoter; test: Collagenase promoter reporter in cells that express endogenous ER (Ishikawa, MCF-7, ZR-75-1); type: cell-based
Description: Left panel, coll73-CAT response with endogenous ER contrasted with the response of an ERE regulated reporter, ERE-coll60CAT. Right panel, coll73-LUC response with 3 μg co-transfected expression vector for human ER. Averages of three individual experiments are shown. […] A single representative experiment with triplicate hormone treatments is shown.
To further explore this phenomenon, and to test whether similar hormone effects could be detected at physiological levels of ER, the expression of the collagenase promoter in cells that express endogenous ER was examined.

[5] = test system: CHO cells, which lack functioning ER; test: Negative control: estrogen-responsive reporter constructs in CHO cells which lack functioning ER; type: cell-based; details: same estrogen-responsive reporter constructs
From the text: To examine whether the series 4 compounds induce estrogenic activity through the ER, we tested the ability of ICI 164384 to inhibit the series 4 estrogenic activity. […] As a negative control, CHO cells, which lack functioning ER, were transfected with the same estrogen-responsive reporter constructs and treated with 17β-estradiol and the series 4 hydroxystilbenes.

## C[C@]12CC[C@@H]3c4ccc(O)cc4CC[C@H]3[C@@H]1CC[C@@H]2O [estradiol, 17β-estradiol]
[1]; CEF (fibroblast), no hormone, saturating hormone
  Coll73 Luciferase Activity: 2.5
[1]; CHO (ovary), no hormone, saturating hormone
  Coll73 Luciferase Activity: 3.3
[1]; CV-1 (kidney), no hormone, saturating hormone
  Coll73 Luciferase Activity: 2.2
[1]; F9 (teratocarcinoma), no hormone, unliganded ER gave 3.2
  Coll73 Luciferase Activity: 1.4
[1]; HELA (cervix), no hormone = 1, ICI 1 μM, tamoxifen 5 μM, estradiol 100 nM
  Coll73 Luciferase Activity: 3.4
[1]; HEP G2 (liver), no hormone, saturating hormone
  Coll73 Luciferase Activity: 4.3
[1]; MDA453 (breast), no hormone, saturating hormone
  Coll73 Luciferase Activity: 8.4
[1]; NIH 3T3 (fibroblast), no hormone, saturating hormone
  Coll73 Luciferase Activity: 3.3
[1]; SHM (myometrium), no hormone, saturating hormone
  Coll73 Luciferase Activity: 2.0
[1]; SY5Y (neuroblastoma), no hormone, saturating hormone
  Coll73 Luciferase Activity: 2.1
[2]
  estrogen response of Δcoll73: failed to respond
[3]; ERC1 cells
  estrogen response of EREΔcoll60 (classical ERE substituted for AP1 site): restored estrogen response
[3]; HeLa cells, FIG. 2C
  activation of ERE-tk: activated
[4]; Ishikawa cells, endogenous receptor, FIG. 4A
  activation of the collagenase promoter (coll73-CAT): activated
[4]; Ishikawa cells, receptor levels raised by transfection
  induction of the collagenase promoter (coll73-LUC): inductions became larger
[4]; MCF-7 cells, endogenous ER, FIG. 4B
  activation of the collagenase promoter: activated
[4]; ZR-75-1 cells
  activation of the collagenase promoter: The same pattern occurred
[5]
  estrogenic activity in cells lacking functioning ER: no estrogenic activity
